Columns and labels:
[1] = biological target: T1, N-type calcium channel (NTCC) (Homo sapiens, UniProt Q00975); assay: FLIPR calcium mobilization assay for N-type calcium channel; type: cell-based; details: calcium mobilization in vitro assay; differentiated IMR32 cells, 5 μM nitrendipine, 90 mM KCl
T1 construct: endogenous in cells; host or cells: IMR32 cells (ATCC), differentiated with dibutyryl cAMP and bromodeoxyuridine
Description: Cell maintenance and differentiation. Unless noted otherwise, cell culture reagents were purchased from Mediatech of Herndon, Md. IMR32 cells (American Type Culture Collection, ATCC, Manassas, Va.) were routinely cultured in growth medium consisting of minimum essential medium containing 10% fetal bovine serum (FBS, Hyclone, Logan, Utah), 100 U/mL penicillin, 100 μg/mL streptomycin, 2 mM L-glutamine, 1 mM sodium pyruvate, and 1×MEM non-essential amino acids. 80-90% confluent flasks of cells were differentiated using the following differentiation medium: Growth medium plus 1 mM dibutyryl cyclic AMP (Sigma, St. Louis, Mo.), and 2.5 μM bromodeoxyuridine (Sigma). Cells were differentiated for 8 days by replacing differentiation medium every 2-3 days.
FLIPR Calcium Mobilization Assay for N-type Calcium Channel. One day prior to performing this assay, differentiated IMR32 cells were treated with 1× CellStripper, and seeded on poly-D-lysine-coated 96-well clear-bottom black plates (Becton Dickinson, Franklin Lakes, N.J.) at 200,000 cells/well. On the day of the assay, the cell plates were washed with IMR32 buffer (127 mM NaCl, 1 mM KCl, 2 mM MgCl2, 700 μM NaH2PO4, 5 mM CaCl2, 5 mM NaHCO3, 8 mM HEPES, 10 mM glucose, pH 7.4), then pre-stimulated with KCl and loaded as follows: 0.05 mL of IMR32 buffer, 0.05 mL of each compound tested diluted in IMR32 buffer containing 20 μM nitrendipine (Sigma), and 0.1 mL KCl dissolved in IMR32 buffer, plus Fluo-4 were added (3 μM final concentration, Molecular Probes, Eugene, Oreg.). Final test compound concentrations ranged from about 846 pM to about 17 μM, final nitrendipine concentration was 5 μM, and final KCl concentration was 90 mM. After 1 hour, the cells were washed twice with 0.05 mL of each compound tested in nitrendipine-containing IMR32 buffer (no KCl or Fluo-4), and then replaced with 0.1 mL of each compound tested in nitrendipine-containing IMR32 buffer. Plates were then transferred to a Fluorimetric Imaging Plate Reader (FLIPR^96, Molecular Devices, Inc., Sunnyvale, Calif.) for assay. The FLIPR measured basal Fluo-4 fluorescence for 315 seconds (i.e., 5 minutes and 15 seconds), then added 0.1 mL KCl agonist dissolved in IMR32 buffer and measured fluorescence for another 45 seconds. Final test compound concentrations on the cells after FLIPR read ranged from about 846 pM to about 17 μM, final nitrendipine concentration was 5 μM, and final KCl concentration was 90 mM. Data were collected over the entire time course and analyzed using Excel, Graph Pad Prism (version 3.02, Graph Pad, San Diego, Calif.), or an in-house non-linear regression analysis software.

[2] = biological target: T2, recombinant rat L-type calcium channel (LTCC) subunits (α1c, α2δ, and β1) (Rattus norvegicus, UniProt P22002); assay: FLIPR calcium mobilization assay for L-type calcium channel; type: cell-based; details: calcium mobilization in vitro assay; HEK293 cells stably expressing rat LTCC subunits, 90 mM KCl
T2 construct: expressed in transfected cells; α1c in pcDNA6.2DEST, β1 in pcDNA3.2DEST, α2δ in pcDNA3.1-Zeo
T2 sequence (P22002 whole entry): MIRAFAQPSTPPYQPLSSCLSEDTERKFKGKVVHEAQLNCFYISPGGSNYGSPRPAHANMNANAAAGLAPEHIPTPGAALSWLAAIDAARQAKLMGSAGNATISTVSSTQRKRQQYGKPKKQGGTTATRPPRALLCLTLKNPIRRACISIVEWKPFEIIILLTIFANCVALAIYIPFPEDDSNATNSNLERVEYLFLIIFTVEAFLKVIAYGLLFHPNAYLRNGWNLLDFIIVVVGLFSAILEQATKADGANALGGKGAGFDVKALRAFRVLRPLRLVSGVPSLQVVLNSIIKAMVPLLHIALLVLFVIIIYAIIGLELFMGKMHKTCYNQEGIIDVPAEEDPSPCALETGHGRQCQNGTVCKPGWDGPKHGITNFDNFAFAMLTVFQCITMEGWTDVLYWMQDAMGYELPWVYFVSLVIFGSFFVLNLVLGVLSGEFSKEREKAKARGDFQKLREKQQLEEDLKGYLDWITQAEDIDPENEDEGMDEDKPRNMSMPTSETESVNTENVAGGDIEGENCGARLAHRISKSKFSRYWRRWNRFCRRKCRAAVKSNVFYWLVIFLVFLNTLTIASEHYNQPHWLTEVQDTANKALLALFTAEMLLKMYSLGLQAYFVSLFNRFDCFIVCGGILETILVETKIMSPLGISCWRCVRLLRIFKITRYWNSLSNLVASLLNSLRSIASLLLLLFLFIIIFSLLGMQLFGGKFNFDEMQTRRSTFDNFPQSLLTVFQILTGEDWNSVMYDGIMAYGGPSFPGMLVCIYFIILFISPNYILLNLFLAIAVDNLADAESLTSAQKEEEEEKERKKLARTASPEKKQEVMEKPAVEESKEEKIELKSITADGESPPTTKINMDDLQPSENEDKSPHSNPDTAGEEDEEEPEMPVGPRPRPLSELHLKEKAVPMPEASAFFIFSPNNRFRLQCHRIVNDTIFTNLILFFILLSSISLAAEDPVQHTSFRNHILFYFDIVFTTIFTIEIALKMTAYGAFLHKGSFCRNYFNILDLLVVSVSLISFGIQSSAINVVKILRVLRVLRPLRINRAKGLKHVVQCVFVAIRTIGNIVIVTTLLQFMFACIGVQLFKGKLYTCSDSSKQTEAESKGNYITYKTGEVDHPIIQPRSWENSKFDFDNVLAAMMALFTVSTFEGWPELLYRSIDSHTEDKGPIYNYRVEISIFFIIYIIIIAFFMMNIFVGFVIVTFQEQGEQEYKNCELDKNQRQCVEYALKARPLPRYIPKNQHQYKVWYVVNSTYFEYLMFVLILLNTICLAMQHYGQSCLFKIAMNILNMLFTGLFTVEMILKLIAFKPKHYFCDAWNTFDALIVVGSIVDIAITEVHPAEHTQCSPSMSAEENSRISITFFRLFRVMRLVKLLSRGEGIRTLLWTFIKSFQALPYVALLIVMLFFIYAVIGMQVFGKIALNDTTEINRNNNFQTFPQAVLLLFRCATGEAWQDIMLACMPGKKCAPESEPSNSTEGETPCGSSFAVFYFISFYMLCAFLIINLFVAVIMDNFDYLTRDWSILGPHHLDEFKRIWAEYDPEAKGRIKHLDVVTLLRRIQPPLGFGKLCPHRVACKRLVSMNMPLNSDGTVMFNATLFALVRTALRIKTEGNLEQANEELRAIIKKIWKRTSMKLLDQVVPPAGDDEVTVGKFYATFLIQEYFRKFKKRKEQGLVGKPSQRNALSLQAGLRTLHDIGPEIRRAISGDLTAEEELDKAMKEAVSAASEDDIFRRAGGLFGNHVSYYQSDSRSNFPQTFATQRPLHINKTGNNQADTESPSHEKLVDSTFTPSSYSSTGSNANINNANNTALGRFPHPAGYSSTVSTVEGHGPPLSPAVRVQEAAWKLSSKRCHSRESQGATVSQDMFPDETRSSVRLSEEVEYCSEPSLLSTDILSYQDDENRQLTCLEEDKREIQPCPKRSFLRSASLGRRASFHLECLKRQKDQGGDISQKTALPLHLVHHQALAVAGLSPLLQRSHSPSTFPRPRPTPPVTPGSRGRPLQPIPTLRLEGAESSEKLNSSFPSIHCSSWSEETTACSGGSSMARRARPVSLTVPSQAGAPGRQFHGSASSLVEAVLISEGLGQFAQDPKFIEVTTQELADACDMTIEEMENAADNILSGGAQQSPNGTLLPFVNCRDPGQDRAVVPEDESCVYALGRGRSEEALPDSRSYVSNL
T2 sequence (P54290 25-944 partner): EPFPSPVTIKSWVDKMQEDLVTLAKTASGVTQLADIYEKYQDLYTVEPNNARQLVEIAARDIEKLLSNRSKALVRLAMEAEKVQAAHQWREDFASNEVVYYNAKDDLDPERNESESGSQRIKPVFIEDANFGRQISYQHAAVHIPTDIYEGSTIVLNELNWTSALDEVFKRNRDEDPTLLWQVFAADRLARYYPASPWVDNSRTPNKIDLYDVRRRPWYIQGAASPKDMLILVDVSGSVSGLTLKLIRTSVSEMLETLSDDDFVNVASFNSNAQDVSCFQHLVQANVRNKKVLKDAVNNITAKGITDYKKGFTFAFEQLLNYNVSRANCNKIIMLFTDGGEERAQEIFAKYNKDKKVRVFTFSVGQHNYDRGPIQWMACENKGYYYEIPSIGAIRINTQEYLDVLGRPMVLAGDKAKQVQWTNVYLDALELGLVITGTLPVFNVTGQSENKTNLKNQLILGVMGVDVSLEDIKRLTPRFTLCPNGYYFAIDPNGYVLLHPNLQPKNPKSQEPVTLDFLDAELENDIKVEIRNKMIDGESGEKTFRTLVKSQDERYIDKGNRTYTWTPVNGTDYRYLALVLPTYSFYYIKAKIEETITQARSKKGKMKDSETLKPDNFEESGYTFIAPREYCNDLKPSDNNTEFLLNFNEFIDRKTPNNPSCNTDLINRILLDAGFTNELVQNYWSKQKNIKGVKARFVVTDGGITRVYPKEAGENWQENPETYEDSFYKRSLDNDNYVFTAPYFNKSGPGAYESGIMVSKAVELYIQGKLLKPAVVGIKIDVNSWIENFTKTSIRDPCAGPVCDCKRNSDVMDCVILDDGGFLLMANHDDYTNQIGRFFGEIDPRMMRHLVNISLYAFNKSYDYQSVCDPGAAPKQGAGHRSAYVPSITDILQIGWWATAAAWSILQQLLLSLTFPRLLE
T2 sequence (P54290 945-1091 partner): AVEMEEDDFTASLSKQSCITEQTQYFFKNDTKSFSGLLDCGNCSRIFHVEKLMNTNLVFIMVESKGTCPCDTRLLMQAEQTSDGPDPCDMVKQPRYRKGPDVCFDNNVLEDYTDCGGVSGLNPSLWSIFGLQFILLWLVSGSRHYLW
T2 sequence (P54283 whole entry partner): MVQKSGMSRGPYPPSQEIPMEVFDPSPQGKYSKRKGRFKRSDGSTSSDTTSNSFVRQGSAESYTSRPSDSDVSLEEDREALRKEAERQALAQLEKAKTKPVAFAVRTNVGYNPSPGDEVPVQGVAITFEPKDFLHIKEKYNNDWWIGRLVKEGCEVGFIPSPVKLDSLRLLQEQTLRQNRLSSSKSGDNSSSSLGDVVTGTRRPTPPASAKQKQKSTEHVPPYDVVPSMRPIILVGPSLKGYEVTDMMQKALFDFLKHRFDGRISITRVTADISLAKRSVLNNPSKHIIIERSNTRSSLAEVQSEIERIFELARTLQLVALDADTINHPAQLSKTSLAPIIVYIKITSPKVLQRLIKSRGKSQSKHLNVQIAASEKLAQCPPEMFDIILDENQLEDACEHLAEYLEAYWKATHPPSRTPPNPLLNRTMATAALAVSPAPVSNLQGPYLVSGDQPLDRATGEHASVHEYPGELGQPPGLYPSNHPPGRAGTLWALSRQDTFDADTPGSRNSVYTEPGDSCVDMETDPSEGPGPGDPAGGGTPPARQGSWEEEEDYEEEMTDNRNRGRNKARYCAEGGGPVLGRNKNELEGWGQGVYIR
Description: Recombinant human embryonal kidney cells (HEK293, ATCC) stably transfected with either N-type calcium channel (NTCC) subunits (α1b (SEQ ID NOs: 13 to 15), α2δ (SEQ ID Nos: 16, 17), and β3 (SEQ ID NOs:18 to 20)) or L-type calcium channel (LTCC) subunits (α1c (SEQ ID NOs:21, 22), α2δ, and β1 (SEQ ID NOs:23 to 25)) were routinely cultured in growth medium consisting of Dulbecco's Modified Eagles Medium containing 10% FBS, 100 U/mL penicillin, 100 μg/mL streptomycin, 4 mM L-glutamine, 500 μg/mL geneticin (G418), 20 μg/mL Blasticidin S (InVivogen, San Diego, Calif.) and 500 μg/mL zeocin (InVivogen).
FLIPR Calcium Mobilization Assay for L-type Calcium Channel. One day prior to performing this assay, HEK293 cells stably expressing recombinant rat L-type calcium channel (LTCC) subunits (α1c, α2δ, and β1) were trypsinized, then seeded on poly-D-lysine-coated 96-well clear-bottom black plates (Becton Dickinson, Franklin Lakes, N.J.) at 75,000 cells/well. On the day of the assay, the plates were washed with LTCC wash buffer (127 mM NaCl, 2 mM MgCl2, 700 μM NaH2PO4, 5 mM CaCl2, 5 mM NaHCO3, 8 mM HEPES, 10 mM glucose, pH 7.4), then loaded with 0.1 mL of LTCC wash buffer containing Fluo-4 (3 μM final concentration, Molecular Probes, Eugene, Oreg.). After 1 hour, the cells were washed with 0.1 mL LTCC wash buffer and resuspended in 0.05 mL LTCC assay buffer (same composition as LTCC wash buffer). Plates were then transferred to a FLIPR^96 for assay. The FLIPR measured basal Fluo-4 fluorescence for 15 seconds, then added 0.05 mL of each compound tested diluted in LTCC assay buffer at final concentrations ranging from about 846 pM to about […]. Fluo-4 fluorescence was then measured for 5 minutes. 0.1 mL KCl agonist dissolved in LTCC assay buffer was then added to the cells to produce a final concentration of 90 mM KCl, and fluorescence was measured for another 45 seconds. Data were collected over the entire time course and analyzed using Excel, Graph Pad Prism, or an in-house regression analysis software.
L-type Recombinant Cell Line Development. L-type calcium channel expressing HEK-293 cells were created in two stages. Stage 1 was created as follows. The rat α1c, and β1 cDNA expression constructs (2.5 μg each) were co-transfected into human embryonic kidney (HEK-293) cells by Lipofectamine Plus reagent (Invitrogen), as per manufacturer's instructions. 24 hours later, cells were split in limiting dilution into multiple 96-well plates in selection media containing 20 μg/mL blasticidin and 500 μg/mL geneticin, and incubated for 3 weeks at 37° C., 5% CO2, 95% humidity. Plates containing ≦1 clone per well were cultured until wells positive for single clones were confluent. Individual clones were then arrayed into columns of a destination 96-well plate, and partly split into 6-well plates for culture maintenance. Array plates were washed once with LTCC wash (or assay) buffer and cells loaded for 1 hour with 0.1 mL of LTCC buffer containing Fluo-4 (3 μM final concentration, Molecular Probes). Then they were washed twice with 0.1 mL of LTCC buffer, and replaced with 0.1 mL LTCC buffer. Plates were then transferred to a FLIPR^96 for assay. The FLIPR measured basal Fluo-4 fluorescence for 315 seconds, then added 0.1 mL KCl agonist dissolved in LTCC buffer and measured fluorescence for another 45 seconds. Final KCl concentration was 90 mM. Data were collected over the entire time course and analyzed using Excel, Graph Pad Prism, or Activity Base software. The clone with the greatest signal-to-noise ratio, best stability of response with passage number, and best adhesion to PDL precoated plates (Becton Dickinson) was expanded, characterized and used for stage 2 cell line development.
Stage 2 of L-type cell line development was carried out as follows. The rat α2δ cDNA expression construct (5 μg each) was transfected into the stage 1 L-type clonal cell line by Lipofectamine Plus reagent (Invitrogen), as per manufacturer's instructions. […]

| Compound | IC50 [1] [nM] | IC50 [2] [µM] |
| --- | --- | --- |
| CCOC(=O)C(C)N1CCC(N(C(C)C)S(=O)(=O)c2cccc(C(F)(F)F)c2)CC1 (centres unmarked) [Compound 8a, 2-[4-[Isopropyl-(3-trifluoromethyl-benzenesulfonyl)amino]piperidin-1-yl}propionic acid ethyl ester] | 1010 |  |
| CCOC(=O)C(C)(C)N1CCC(N(C(C)C)S(=O)(=O)c2cccc(C(F)(F)F)c2)CC1 [Compound 8b, 2-{4-[Isopropyl-(3-trifluoromethyl-benzenesulfonyl)amino]piperidin-1-yl}-2-methylpropionic acid ethyl ester] | 620 | > 20 |
| O=C(CN1CCC(N(C2CC2)S(=O)(=O)c2cccc(C(F)(F)F)c2)CC1)Oc1ccc(Cl)cc1 [Compound 8c, {-4-[Cyclopropyl-(3-trifluoromethyl-benzenesulfonyl)amino]piperidin-1-yl}acetic acid 4-chlorophenyl ester] | 600 | > 20 |
| CC(C)N(C1CCN(CCC(=O)N2CCCCC2)CC1)S(=O)(=O)c1cccc(C(F)(F)F)c1 [Compound 18, N-Isopropyl-N-[1-(3-oxo-3-piperidin-1-yl-propyl)-piperidin-4-yl]-3-trifluoromethyl-benzenesulfonamide] | 770 | > 20 |
| CC(CC(=O)NC(C)(C)C)N1CCC(N(C(C)C)S(=O)(=O)c2cccc(C(F)(F)F)c2)CC1 (centres unmarked) [Compound 25, 3-{4-[Isopropyl-(3-trifluoromethyl-benzenesulfonyl)amino]piperidin-1-yl}-N-tert-butyl-butyramide] | 240 | 8.45 |

Results, then the compound that gave them:

| IC50 [1] [nM] | IC50 [2] [µM] | Compound |
| --- | --- | --- |
| 900 | > 20 | COC(=O)c1ccccc1N1CCC(N(C2CC2)S(=O)(=O)c2cccc(C(F)(F)F)c2)CC1 [Compound 10a, 2-{4-[Cyclopropyl-(3-trifluoromethyl-benzenesulfonyl)amino]piperidin-1-yl}benzoic acid methyl ester] |
| 1440 |  | CCOC(=O)c1cccnc1N1CCC(N(C2CC2)S(=O)(=O)c2cccc(C(F)(F)F)c2)CC1 [Compound 10b, 4-[Cyclopropyl-(3-trifluoromethyl-benzenesulfonyl)amino]-3,4,5,6-tetrahydro-2H-[1,2′]-bipyridinyl-3′-carboxylic acid ethyl ester] |
| 1070 |  | CCOC(=O)c1cc(F)cc(N2CCC(N(C3CC3)S(=O)(=O)c3cccc(C(F)(F)F)c3)CC2)c1 [Compound 10c, 3-{-4-[Cyclopropyl-(3-trifluoromethyl-benzenesulfonyl)amino]piperidin-1-yl}-5-fluorobenzoic acid ethyl ester] |
| 1310 |  | CCOC(=O)c1ccc(N2CCC(N(C3CC3)S(=O)(=O)c3cccc(C(F)(F)F)c3)CC2)cc1 [Compound 10d, 4-{-4-[Cyclopropyl-(3-trifluoromethyl-benzenesulfonyl)amino]piperidin-1-yl}benzoic acid ethyl ester] |
| 6270 |  | O=S(=O)(c1cccc(C(F)(F)F)c1)N(C1CC1)C1CCN(c2cc(C(F)(F)F)cc(C(F)(F)F)c2)CC1 [Compound 10e, N-[1-(3,5-Bis-(trifluoromethyl)phenyl)piperidin-1-yl]-N-cyclopropyl-3-trifluoromethylbenzenesulfonamide] |
| 380 | 6.74 | O=C(NCCN1CCC(N(C2CC2)S(=O)(=O)c2cccc(C(F)(F)F)c2)CC1)c1ccc(F)cc1 [Compound 14a, N-(2-{-4-[Cyclopropyl-(3-trifluoromethylbenzenesulfonyl)amino]piperidin-1-yl}ethyl)-4-fluorobenzamide] |
| 1130 |  | O=C(NCCN1CCC(N(C2CC2)S(=O)(=O)c2cccc(C(F)(F)F)c2)CC1)c1cc(C(F)(F)F)cc(C(F)(F)F)c1 [Compound 14b, N-(2-{4-[Cyclopropyl-(3-trifluoromethylbenzenesulfonyl)amino]piperidin-1-yl}ethyl)-3,5-bis(trifluoromethyl)phenylbenzamide] |
| 1600 |  | CC(C)(C(=O)Nc1ccc(F)cc1Cl)N1CCC(N(C2CC2)S(=O)(=O)c2cccc(C(F)(F)F)c2)CC1 [Compound 21a, N-(2-Chloro-4-fluorophenyl)-2-{-4-[cyclopropyl-(3-trifluoromethyl-benzenesulfonyl)-amino]-piperidin-1-yl}-isobutyramide] |
| 600 | > 20 | CC(C)(C(=O)Nc1ccc(F)cc1)N1CCC(N(C2CC2)S(=O)(=O)c2cccc(C(F)(F)F)c2)CC1 [Compound 21b, 2-{-4-[Cyclopropyl-(3-trifluoromethyl-benzenesulfonyl)-amino]-piperidin-1-yl}-N-(4-fluoro-phenyl)-isobutyramide] |
| 1610 |  | CC(C)N(C1CCN(CC(=O)N2CCCC2)CC1)S(=O)(=O)c1cccc(C(F)(F)F)c1 [Compound 31b, N-Isopropyl-N-[1-(2-oxo-2-pyrrolidin-1-yl-ethyl)-piperidin-4-yl]-3-trifluoromethyl-benzenesulfonamide] |
| 3200 |  | CC(C)N(C1CCN(CC(=O)NC2CCOC2)CC1)S(=O)(=O)c1cccc(C(F)(F)F)c1 (centres unmarked) [Compound 31e, 2-{4-[Isopropyl-(3-trifluoromethyl-benzenesulfonyl)-amino]-piperidin-1-yl}-N-(tetrahydrofuran-3-yl)-acetamide] |
